{"source": "patent US20060222706A1", "about": "(priority 2005, published 2006)", "experiment": "small volume in vitro release in 50 ml 0.1N HCl", "format": "physicochemical", "details": "37° C., 150 rpm", "method": "The formulations were tested for their small volume in vitro release characteristics in 50 ml 0.1N HCl at 37° C. and 150 rpm using the following procedure: III. Instrumentation (or Equivalent) • a. Automated Dissolution System comprising of: • Hanson SR8 Plus Test Station • Hanson Auto Plus Maximiser System Controller • Hanson Auto Plus MultiFill Fraction Collector • b. […] Procedure • Place one weighed capsule in each vessel containing 0.1N HCl and immediately operate the apparatus for 30 min. • Unless otherwise specified, 3 ml samples are withdrawn from each vessel and immediately filtered through PTFE membranes at 15 and 30 min. IV.\nThe small volume was chosen as a model of the conditions in a fasted stomach.", "data": [{"compound": "CC(C)OC(=O)C(C)(C)Oc1ccc(C(=O)c2ccc(Cl)cc2)cc1", "note": "[Micronized Fenofibrate]", "values": [{"measurement": "dissolution under small volume model condition (in words)", "result": "no dissolution at all"}]}]}
